Data as given in patent US12486216B2, “Processes for preparing nitrosylated propanediols, compositions comprising the same, and medical uses thereof” (ATTGENO AB, priority 2018, dated 2025).

Columns and labels:
[1] = tested on: anesthetised and mechanically ventilated pigs with U46619-induced pulmonary hypertension; test: In vivo study in pigs with U46619-induced pulmonary hypertension, PDNO infusion vs inhaled NO; conditions: for mean pulmonary arterial pressure / pulmonary vascular resistance: median (interquartile range)
[2] = Stability of non-aqueous mixtures of the nitrites in 1,2-propanediol (GC); type: physicochemical
Procedure: Three different concentrations of 1-(nitrosooxy)-propan-2-ol and 2-(nitrosooxy)-propan-1-ol in 1,2-propanediol were prepared and stored in both a refrigerator (5° C.) and freezer (−20° C.). Aliquots of each solution were taken periodically and analysed by GC to determine the concentration of 1-(nitrosooxy)-propan-2-ol and 2-(nitrosooxy)-propan-1-ol.
The results of the GC analysis are shown in the table below (column: Rxi-5Sil MS, 20 m×0.18 mm, […]; carrier: He; Inlet: 250° C., split ratio 100:1; constant flow: 1.0 mL/min; oven temperature profile: 40° C. (3 min), 10° C./min, 80° C. (0 min), 30° C./min, 250° C. (3 min); FID: 300° C., H2 flow 30 mL/min, air flow 400 mL/min, make-up flow (N2) 25 mL/min; internal standard: 1,1,1,3,5,5,5-heptamethyl trisiloxane): […]

anesthetised pigs = test: Pharmacological investigation of 1,2-PDNO—R, 1,2-PDNO—S and 1,3-PDNO in anesthetised pigs; type: in vivo, pig; conditions: pH approximately 8
Text: Prior to experimentation, ethical approval was received from Linköping's regional animal ethics committee (Linköping, Sweden; approval number 953). In brief, 2 male and female pigs (a crossbreed between Swedish country breed, Hampshire and Yorkshire; 3-4 months old; 24-26 kg) were premedicated with azaperone at the farm and transported to the laboratory. At the laboratory, anaesthesia was induced with a mixture of tiletamine, zolazepam and azaperone (intramuscular injection). Propofol was given in a peripheral venous catheter in an ear vein, if needed. Bolus doses of atropine and cefuroxime were administered intravenously. The animals were endotracheally intubated and mechanically ventilated (5 cm H2O in positive end-expiratory pressure, minute ventilation was adjusted to normoventilation). General anaesthesia was maintained with propofol and fentanyl via continuous intravenous infusions, and additional bolus doses were given if needed. Ringer's acetate and glucose solutions were continuously administered intravenously to substitute for fluid loss. Heparin was given as an intravenous bolus dose after the surgical instrumentation. After the experiments the animals were killed in general anaesthesia with a propofol injection followed by a rapid intravenous injection of potassium chloride (40 mmol), and asystolia was confirmed.
The animals were instrumented with an arterial catheter in the right carotid artery for measurement of systemic arterial blood pressure and heart rate. A sheath was placed in the right external jugular vein for introduction of a pulmonary-arterial catheter. This catheter was used for continuous measurement of pulmonary arterial blood pressure, semi-continuous cardiac output and intermittent pulmonary wedge pressure. […] Respiratory gases, pressures and volumes were measured at the endotracheal tube. Respiratory and hemodynamic variables were measured by a Datex AS/3 (Helsinki, Finland) and data were collected by a computerised system (MP100 or MP150/Acknowledge 3.9.1, BIOPAC systems, Goleta, CA, USA). […]

[3] = PDNO iv 15-60 nmol kg^−1 min^−1 or inhaled NO 5-40 ppm, during U46619
[4] = PDNO or inhaled NO during U46619, data not shown
[5] = Freezer (−20° C.), 10 days, Low conc.
[6] = Freezer (−20° C.), 10 days, Medium conc.
[7] = Freezer (−20° C.), 14 days, High conc.
[8] = Freezer (−20° C.), 27 days, Low conc.
[9] = Freezer (−20° C.), 27 days, Medium conc.
[10] = Freezer (−20° C.), 28 days, High conc.
[11] = Freezer (−20° C.), 56 days, High conc.
[12] = Freezer (−20° C.), 64 days, Low conc.
[13] = Freezer (−20° C.), 64 days, Medium conc.
[14] = Freezer (−20° C.), 84 days, High conc.
[15] = Freezer (−20° C.), 84 days, Low conc.
[16] = Freezer (−20° C.), 84 days, Medium conc.
[17] = Freezer (−20° C.), Start, High conc.
[18] = Freezer (−20° C.), Start, Low conc.
[19] = Freezer (−20° C.), Start, Medium conc.
[20] = Refrigerator (5° C.), 10 days, Low conc.
[21] = Refrigerator (5° C.), 10 days, Medium conc.
[22] = Refrigerator (5° C.), 14 days, High conc.
[23] = Refrigerator (5° C.), 27 days, Low conc.
[24] = Refrigerator (5° C.), 27 days, Medium conc.
[25] = Refrigerator (5° C.), 28 days, High conc.
[26] = Refrigerator (5° C.), 56 days, High conc.
[27] = Refrigerator (5° C.), 64 days, Low conc.
[28] = Refrigerator (5° C.), 64 days, Medium conc.
[29] = Refrigerator (5° C.), 84 days, High conc.
[30] = Refrigerator (5° C.), 84 days, Low conc.
[31] = Refrigerator (5° C.), 84 days, Medium conc.
[32] = Refrigerator (5° C.), Start, High conc.
[33] = Refrigerator (5° C.), Start, Low conc.
[34] = Refrigerator (5° C.), Start, Medium conc.
[35] = U46619 infusion alone, data not shown
[36] = 10-15 min iv infusion (1,2-PDNO—R and —S 43, 1,3-PDNO 30 nmol kg^−1 min^−1) into sodium bicarbonate carrier

Row | Molecule | Concentration [2, 5] | Concentration [2, 6] | Concentration [2, 7] | Concentration [2, 8] | Concentration [2, 9] | Concentration [2, 10] | Concentration [2, 11] | Concentration [2, 12] | Concentration [2, 13] | Concentration [2, 14] | Concentration [2, 15] | Concentration [2, 16] | Concentration [2, 17] | Concentration [2, 18] | Concentration [2, 19] | Concentration [2, 20] | Concentration [2, 21] | Concentration [2, 22] | Concentration [2, 23] | Concentration [2, 24] | other results
1 | nitric oxide [inhaled NO] |  |  |  |  |  |  |  |  |  |  |  |  |  |  |  |  |  |  |  |  | Effect on pulmonary arterial pressure ([1]; PDNO iv 15-60 nmol kg^−1 min^−1 in sodium bicarbonate carrier or inhaled NO 5-40 ppm, during U46619): significantly reduced; Effect on methemoglobin concentration ([1]; PDNO iv 15-60 nmol kg^−1 min^−1 or inhaled NO 5-40 ppm, arterial blood): No drug significantly affected; Effect on mean arterial pressure [1, 3]: No drug significantly affected; Effect on pulmonary vascular resistance [1, 3]: significantly reduced; Effect on systemic vascular resistance [1, 3]: No drug significantly affected; Effect on arterial partial pressure of oxygen [1, 4]: increased this variable towards normal; Effect on cardiac output [1, 4]: no drug significantly changed; Pulmonary-to-systemic vascular resistances ratio compared to the PDNO group ([1]; at the highest doses, data not shown): slightly lower; Effect on pulmonary-to-systemic vascular resistances ratio ([1]; during U46619, data not shown): significantly decreased; Trend in methemoglobin concentration ([1]; inhaled NO group, associated to dose of delivered NO): tendency for an increase
2 | CC(CO)ON=O (stereo not shown) [2-Nitrite, 2-(nitrosooxy)-propan-1-ol] | 0.06 % w/w | 0.63 % w/w | 2.89 % w/w | 0.06 % w/w | 0.57 % w/w | 2.93 % w/w | 2.74 % w/w | 0.06 % w/w | 0.58 % w/w | 2.71 % w/w | 0.06 % w/w | 0.62 % w/w | 2.94 % w/w | 0.06 % w/w | 0.61 % w/w | 0.06 % w/w | 0.67 % w/w | 2.91 % w/w | 0.07 % w/w | 0.63 % w/w | Concentration [2, 25]: 2.90 % w/w; Concentration [2, 26]: 2.69 % w/w; Concentration [2, 27]: 0.06 % w/w; Concentration [2, 28]: 0.57 % w/w; Concentration [2, 29]: 2.59 % w/w; Concentration [2, 30]: 0.06 % w/w; Concentration [2, 31]: 0.60 % w/w; Concentration [2, 32]: 2.94 % w/w; Concentration [2, 33]: 0.06 % w/w; Concentration [2, 34]: 0.61 % w/w
3 | CC(O)CON=O (stereo not shown) [1-Nitrite, 1-(nitrosooxy)-propan-2-ol] | 0.08 % w/w | 0.81 % w/w | 3.76 % w/w | 0.07 % w/w | 0.74 % w/w | 3.72 % w/w | 3.55 % w/w | 0.07 % w/w | 0.74 % w/w | 3.50 % w/w | 0.08 % w/w | 0.78 % w/w | 3.75 % w/w | 0.08 % w/w | 0.81 % w/w | 0.08 % w/w | 0.86 % w/w | 3.72 % w/w | 0.09 % w/w | 0.81 % w/w | Concentration [2, 25]: 3.67 % w/w; Concentration [2, 26]: 3.47 % w/w; Concentration [2, 27]: 0.07 % w/w; Concentration [2, 28]: 0.73 % w/w; Concentration [2, 29]: 3.33 % w/w; Concentration [2, 30]: 0.07 % w/w; Concentration [2, 31]: 0.77 % w/w; Concentration [2, 32]: 3.75 % w/w; Concentration [2, 33]: 0.08 % w/w; Concentration [2, 34]: 0.81 % w/w
4 | CCCCCC(O)C=CC1C2CC(CO2)C1CC=CCCCC(=O)O (stereo not drawn) [U46619, 9,11-dideoxy-9α, 11α-methanoepoxy PGF2α] |  |  |  |  |  |  |  |  |  |  |  |  |  |  |  |  |  |  |  |  | Effect on arterial partial pressure of oxygen [1, 35]: slightly decreased; Effect on cardiac output [1, 35]: slightly decreased; mean pulmonary arterial pressure ([1]; during iv U46619 60-150 ng kg^−1 min^−1, before NO inhalation): 43 (37-48) mmHg; mean pulmonary arterial pressure ([1]; during iv U46619 60-150 ng kg^−1 min^−1, before PDNO infusion): 43 (41-46) mmHg; pulmonary vascular resistance ([1]; during iv U46619, before NO inhalation): 8.3 (6.7-11.7) mmHg min l^−1; pulmonary vascular resistance ([1]; during iv U46619, before PDNO infusion): 9.8 (7.7-12.5) mmHg min l^−1
5 | O=NOCCCO [1,3-PDNO, 1-(nitrosooxy)propan-3-ol] |  |  |  |  |  |  |  |  |  |  |  |  |  |  |  |  |  |  |  |  | Effect on mean pulmonary arterial pressure (anesthetised pigs; [36]): decreased; Effect on mean systemic arterial pressure (anesthetised pigs; [36]): decreased; Vasodilation (anesthetised pigs; 10-15 min iv infusion into sodium bicarbonate carrier): caused systemic and pulmonary vasodilation
